Source: patent US20110117168A1, “METHODS AND COMPOSITIONS FOR SOFT TISSUE REPAIR” (AFFINERGY, INC., priority 2009, published 2011)
Ends that are not written are not given here.

What was measured:
Type in all cases: cell-based, human
dermal fibroblasts = assay: Biotinylated peptide cell binding specificity by flow cytometry (Neutravidin-PE); conditions: 25 μM peptide solution, 30 min at 4° C.
Excerpt: The synthetic biotinylated cell binding peptide SEQ ID NO: 4 was examined for its ability to specifically bind MSCs compared to a number of other cells types including adipose-derived mesenchymal stem cells (ASCs), dermal fibroblasts, rodent MSCs, red blood cells, monocytes, lymphocytes and granulocytes. The cell binding peptide was biotinylated as described herein at Example 2. Cultured cells of each type were either purchased (ASCs and dermal fibroblasts) or isolated from rodent bone marrow (rodent MSCs) or human blood. Cells were first harvested and resuspended at 10^6/mL in PBS+2% fetal bovine serum (FBS). An aliquot of cells (50 μL) was incubated in 50 μL of peptide solution (25 μM in PBS+FBS) for 30 min at 4° C. Cells were then washed twice in PBS+FBS with 300×g centrifugation for 5 min between washes. Fluorescently-tagged neutravidin (Neutravidin-PE from INVITROGEN) was then added to the cells to label biotinylated peptide bound to cells. Neutravidin-PE was diluted 1:250 from stock and applied at 50 μL to cells. Cells were then washed in PBS+FBS, and acquired on a BD […]. Peptide reactivity was then measured as percent positivity relative to Neutravidin-PE staining without the addition of biotinylated peptide.

MSCs [1] = assay: Capture of MSCs from bone marrow aspirate, colony forming units; conditions: biotinylated peptide, streptavidin-coated MILTENYI beads; compared to CD105 and MSCA-1 antibody beads
Description: This experiment was performed to examine the ability of cell binding peptide SEQ ID NO: 4 to capture MSCs directly from bone marrow aspirate in comparison to two separate antibodies against the CD105 I antigen (CD105) and the MSCA-1 stem cell antigen (MSCA-1). This experiment employed biotinylated peptides with streptavidin-coated […] magnetic beads. The peptides were biotinylated as described herein at Example 2. […] For the antibody capture experiment, magnetic beads having covalently attached CD105 or MSCA-1 antibody were employed ([…]). Prior to incubation with the peptides and antibodies, bone marrow aspirate (BMA) was mixed with 5 volumes of 10 mM ammonium chloride for 1-2 min at room temperature to lyse red blood cells. The lysate was centrifuged for 5 min at 300×g and the supernatant discarded. The cell pellet was washed with wash buffer (PBS+0.5% bovine serum albumin+0.5 mM EDTA) and cells were resuspended in […] peptide at a concentration of 10^8 per mL. For peptide binding studies, the cell suspension was incubated with the biotinylated peptides for 30 min at 4° C. to allow for binding. After incubation, cells were spun down at 300×g for 5 min, and peptide solution was aspirated. Cells were then rinsed twice with wash buffer, with centrifugation between washes. […] Colony forming units (CFUs) were counted after 14 days in culture. […]

MSCs [2] = assay: Adipocyte differentiation of peptide-captured MSCs (Oil Red O); conditions: 21 days in adipocyte differentiation medium
Description: Adipocyte differentiation. After capture of MSCs using cell binding peptide SEQ ID NO: 4 with the […] magnetic system according to Example 6, the ability of the captured cells to differentiate into an adipocyte lineage was examined. The MSCs present in the […] column eluants (see Example 6) were cultured for 21 days in complete medium (DMEM, 10% FBS, 100 units/mL penicillin, 100 μg/mL streptomycin, and 2 mM glutamine) supplemented with 0.5 mM isobutyl methylxanthine, 1 μM dexamethasone, 10 μM insulin, 200 μM indomethacin, and 1% antibiotic/antimycotic. Following the 21 day incubation, the cells were fixed in 4% paraformaldehyde in PBS for 15 minutes, washed in 60% isopropanol for 5 minutes, and stained with Oil Red 0 (SIGMA) for 10 minutes to determine the extent of adipogenesis (see FIG. 26, panels A (undifferentiated MSCs) and panel B (adipocyte differentiated MSCs)). The image of the adipose differentiated cells (FIG. 26, panel B) contains a larger magnification inset where the lipid vacuoles are clearly visible.

MSCs [3] = assay: Chondrocyte differentiation of peptide-captured MSCs (aggrecan immunostaining); conditions: 24 days in CHONDRODIFF medium
Description: Chondrocyte differentiation. To examine chondrocyte differentiation, the MSCs present in the […] column eluants (see Example 6) were pelleted by centrifugation at 150×g for 5 minutes. Cells were washed once with 1 ml MACS NH CHONDRODIFF Medium without disturbing the pellet. Cells were spun again and 1 mL CHONDRODIFF Medium was added to each pellet. Every third day, medium was aspirated and replaced with fresh pre-warmed medium. After 24 days in culture, cells exposed to CHONDRODIFF medium formed cartilage plugs or nodules, whereas control cells formed only loose or small nodules. Cells were washed once with PBS and fixed in neutral buffered formalin overnight. Sections were embedded in paraffin and sectioned at 5 microns. Sections were examined by hemotoxylin and eosin staining (data not shown). Sections were further examined by immunostaining for aggrecan, a major structural component of cartilage. In FIG. 27, sections from the periphery (panels A and B) or center (panels C and D) were incubated with an antibody against aggrecan (ABCAM) (panels B and D) or with secondary detection reagents only as a control (panels A and C), then counterstained with DAPI to reveal cell nuclei. […] Control images of captured cells grown in the absence of differentiation medium could not be taken due to the small and loose nature of nodules.

Sequence: SSFWDVCQGDGTCYGGGSR (SSFWDVCQGDGTCYGGGSRGSSG-{K(biotin)}; cysteine pairing not given here) [SEQ ID NO: 4, tested biotinylated with GSSGK(biotin) or other spacer at the C-terminus]
- binding to dermal fibroblasts (percent positivity relative to Neutravidin-PE staining) (dermal fibroblasts): high binding
- MSC capture from bone marrow aspirate (CFUs after 14 days in culture) (MSCs [1]): as efficient as capture by either of the CD105 or MSCA-1 antibodies
- adipocyte differentiation of captured MSCs (MSCs [2]): adipogenesis pathway remains intact
- chondrocyte differentiation of captured MSCs (aggrecan) (MSCs [3]): aggrecan could be detected
